Legend:
NUP-MDSC cell lysate [1] = target: T1, NUP-MDSC cell lysate (Mus musculus, UniProt P59644); test: Solvent-induced protein precipitation profiling, proteome-wide; type: binding; conditions: protein Inpp5j; soluble fraction; 26 uM
T1 construct: endogenous in cells; host or cells: mouse NUP-MDSC (lysate)
T1 sequence (P59644 1-1003): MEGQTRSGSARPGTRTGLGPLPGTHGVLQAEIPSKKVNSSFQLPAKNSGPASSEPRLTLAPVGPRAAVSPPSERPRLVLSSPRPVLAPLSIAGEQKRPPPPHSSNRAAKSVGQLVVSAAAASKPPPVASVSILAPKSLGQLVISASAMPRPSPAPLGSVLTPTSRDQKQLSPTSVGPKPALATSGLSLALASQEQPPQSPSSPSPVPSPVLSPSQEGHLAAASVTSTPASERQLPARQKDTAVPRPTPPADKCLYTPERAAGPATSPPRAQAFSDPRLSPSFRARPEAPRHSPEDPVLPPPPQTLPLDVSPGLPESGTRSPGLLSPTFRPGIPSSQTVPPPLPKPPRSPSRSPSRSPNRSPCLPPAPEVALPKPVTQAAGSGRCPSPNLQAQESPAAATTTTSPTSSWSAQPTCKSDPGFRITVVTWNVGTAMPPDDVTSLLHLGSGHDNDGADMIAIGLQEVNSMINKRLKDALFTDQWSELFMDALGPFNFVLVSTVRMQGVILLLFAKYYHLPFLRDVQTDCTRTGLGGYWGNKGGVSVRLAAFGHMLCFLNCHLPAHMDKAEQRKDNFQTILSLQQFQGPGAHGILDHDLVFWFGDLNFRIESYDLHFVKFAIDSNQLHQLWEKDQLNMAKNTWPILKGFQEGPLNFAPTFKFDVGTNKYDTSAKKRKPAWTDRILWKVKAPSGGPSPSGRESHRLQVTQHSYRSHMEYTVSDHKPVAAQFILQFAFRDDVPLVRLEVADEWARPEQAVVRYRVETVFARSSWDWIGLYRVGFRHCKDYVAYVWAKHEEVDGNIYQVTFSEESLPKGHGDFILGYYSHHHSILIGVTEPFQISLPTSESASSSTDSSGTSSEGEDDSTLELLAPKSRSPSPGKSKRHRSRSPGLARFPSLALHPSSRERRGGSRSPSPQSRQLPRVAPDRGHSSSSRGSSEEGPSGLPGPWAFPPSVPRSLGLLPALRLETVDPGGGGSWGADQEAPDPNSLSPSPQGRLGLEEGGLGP
Experimental: (§1) NUP-MDSCs were differentiated as described above, washed twice with PBS, resuspended in lysis buffer (PBS, 0.4% IGEPAL CA-630, 1× Halt Protease-Inhibitor Cocktail (Thermo Fisher Scientific)), and subjected to three freeze-thaw cycles. The lysate was cleared by centrifugation for 30 min at 18,000g and 4 °C. The soluble fraction was diluted to 4 mg/ml and allowed to warm up to room temperature. Equal volumes of lysate were treated in triplicates with 100 x compound stock solutions (in DMSO) or DMSO for 15 min at room temperature (final concentrations: cmpd 2: 7.8 μM (3xEC50) and 26 μM (10xEC50), cmpd 3: 10 μM and 26 μM). Similar to a previous study ([46]), each sample was divided into eight aliquots to be denatured using different concentrations (8%, 10%, 12%, 14%, 16%, 18%, 20%, 22%) of acetone:ethanol:acetic acid (50:50:0.1) in water for 20 min at 37 °C with vigorous shaking. Aggregated proteins were separated by centrifugation for 45 min at 4 °C and 3900g. Next, equal amounts of the soluble fraction were pooled for subsequent proteomic analysis.
(§2) Methanol was added to 100 μg of the pooled supernatants to a final concentration of 70% and further processed according to the R2P1 protocol ([47]), with tryptic digestion performed in 50 mM Hepes (pH 8.5). Elution fractions were combined and dried by vacuum centrifugation. Dried samples were resuspended in deionized water, and TMT labeling was performed according to Zecha et al. ([35]). All 15 samples (5 treatment conditions in triplicates) were labeled with one TMTpro plex. Next, equal amounts were pooled and desalted by C18 solid-phase extraction cartridges (Sep-Pak Vac 1 cc C18 Cartridges, Waters Corp). Desalted peptides were chromatographically separated via basic reversed phase chromatography as previously described ([36]) into 24 fractions, dried down, and stored at −20 °C until further analysis.
(§3) Peptides were analyzed via LC-MS/MS on a Vanquish Neo UHPLC coupled to an Orbitrap Eclipse Tribrid mass spectrometer (Thermo Fisher Scientific). […] The mass spectrometer was operated in data-dependent mode and positive ionization mode. Samples were measured, employing a MS3 method with real-time search. […] Iontrap-MS2 spectra for peptide identification were acquired using HCD fragmentation with 35% NCE, an isolation window of 0.7 m/z, an AGC target value of 5e4 charges, and a maxIT of 35 ms. To obtain quantitative information on TMT reporter ions, each peptide precursor was fragmented again as for MS2 analysis followed by synchronous selection of the up to 10 most intense peptide fragments in the iontrap ([37]) and further fragmentation via HCD using an NCE of 55%. For the MS3 scan, real-time search was enabled to only trigger a MS3 scan for peptides that are TMT-labeled and can be identified (searched against a mouse database, same as used for maxquant processing). The MS3 scan was recorded in the OT at 30,000 resolution (scan range 110–500 m/z, isolation window of 0.7 m/z, AGC of 2e4 charges, maxIT of 120 ms). The cycle time was set to 3 s, and the dynamic exclusion lasted for 60 s.
(§4) Raw files were searched with Maxquant (v. 2.0.3.0) against the mouse reference proteome (UP000000589, canonical, download 10/2019, 55,029 entries) with standard settings for reporter ion MS3 unless described otherwise ([39]). Isotope impurities of the TMT lot were specified to allow MaxQuant the automated correction of TMT intensities. […] Trypsin/P was specified as the proteolytic enzyme with up to two missed cleavage sites allowed. […]

NUP-MDSC cell lysate [2] = test: as above; type: binding, mouse; conditions: for log2 FC cmpd2_26uM/cmpd3_26uM: soluble fraction, 26 uM
Experimental: as §1, §2, §3, §4

For `CCOC(=O)c1nnn(-c2nn3nnnc3c3ccccc23)c1C` [compound 2], the “log2 FC cmpd2_26uM/cmpd3_26uM” value (NUP-MDSC cell lysate [1]) was 0.07, the “stabilization of proteins against solvent-induced aggregation” value (NUP-MDSC cell lysate [2]; 7.8 μM and 26 μM, vs compound 3) was “significant stabilization of several proteins” and the “log2 FC cmpd2_26uM/cmpd3_26uM” value (NUP-MDSC cell lysate [2]; protein Magohb;Magoh) was 0.25. The “log2 FC cmpd2_26uM/cmpd3_26uM” value (NUP-MDSC cell lysate [2]; protein Srcap) was -0.12.

Reference: paper PMC10518717, “High-Throughput Screening and Proteomic Characterization of Compounds Targeting Myeloid-Derived Suppressor Cells” (Molecular & Cellular Proteomics : MCP, 2023)
